Data from patent US20040018941A1, “Fused-benzene derivatives of thiouracil, herbicidal and desiccant compositions contaning them” (ISHIHARA SANGYO KAISHA, LTD., priority 2002, published 2004).

How the values were obtained:
Assay type in all cases: in vivo
Details in all cases: rating 0-100 (0 no damage, 100 complete death), 14 days after application
[1] = tested on: ivyleaf morningglory (Ipomoea hederacea, IPOHE); experiment: Pre-emerge herbicidal activity, greenhouse screen, IPOHE
Description: (§1) A standard greenhouse herbicide activity screening system was used to evaluate the herbicidal efficacy and crop safety of these test compounds. Seven broadleaf weed species including redroot pigweed (Amaranthus retroflexus, AMARE), velvetleaf (Abutilon theophrasti, ABUTH), sicklepod (Cassia obtusifolia, CASOB), ivyleaf morningglory (Ipomoea hederacea, IPOHE), lambsquarters (Chenopodium album, CHEAL), common ragweed (Ambrosia artemisiifolia L., AMBEL), and cocklebur (Xanthium strumarium, XANST) were used as test species. Four grass weed species including green foxtail (Setaria viridis, SETVI), barnyardgrass (Echinochloa crus-galli, ECHCG), johnsongrass (Sorghum halepense, SORHA), and large crabgrass (Digitaria sanguinalis, DIGSA) were also used. In addition, three crop species, field corn (Zea mays L., var. Dekalb 527, CORN), soybean (Glycine max L., var. Pella 86, SOY), and upland rice (Oryza sp., var. Tebonnet, RICE) were included.
(§2) All plants were grown in 10 cm square plastic pots which were filled with a sandy loam soil mix. For pre-emerge tests, seeds were planted one day prior to application of the test compounds. For post-emerge tests, seeds were planted 8-21 days prior to the test to allow emergence and good foliage development prior to application of the test substances. At the time of the post-emerge application, plants of all species were usually at the 2-3 leaf stage of development.
(§3) All test compounds were dissolved in acetone and applied to the test units in a volume of 187 l/ha. Test materials were applied at rates ranging from 15 g ai/ha to 1000 g ai/ha using a track sprayer equipped with a TJ8001 E even flow flat fan spray nozzle. Plants were arranged on a shelf so that the top of the canopy (post-emerge) or top of the soil surface (pre-emerge) was 40-45 cm below the nozzle. Pressurized air was used to force the test solution through the nozzle as it was mechanically advanced over the top of all test plants/pots. This application simulates a typical commercial field herbicide application.
(§4) In the post-emerge test, a commercial non-ionic surfactant was also included (0.25% v/v) to enhance wetting of the leaf surfaces of target plants. Immediately after application, test units of the pre-emerge applications were watered at the soil surface to incorporate the test materials.
(§5) At 14 days after application of the test materials, phytotoxicity ratings were recorded. A rating scale of 0-100 was used as previously described in Research Methods in Weed Science, 2nd edition, B. Truelove, Ed., Southern Weed Science Society, Auburn University, Auburn, Ala., 1977. Briefly, “0” corresponds to no damage and “100” corresponds to complete death of all plants in the test unit. This scale was used both to determine efficacy against weed species and damage to crop species. Herbicide activity data for various compounds of this invention, which are shown by compound No. in Tables 1-7, are shown in Tables 8 and 9.

[2] = tested on: johnsongrass (Sorghum halepense, SORHA); experiment: Post-emerge herbicidal activity, greenhouse screen, SORHA
Description: as §1, §2, §3, §4, §5

[3] = tested on: common ragweed (Ambrosia artemisiifolia L., AMBEL); experiment: Pre-emerge herbicidal activity, greenhouse screen, AMBEL
Description: as §1, §2, §3, §4, §5

[4] = tested on: johnsongrass (Sorghum halepense, SORHA); experiment: Pre-emerge herbicidal activity, greenhouse screen, SORHA
Description: as §1, §2, §3, §4, §5

[5] = tested on: large crabgrass (Digitaria sanguinalis, DIGSA); experiment: Pre-emerge herbicidal activity, greenhouse screen, DIGSA
Description: as §1, §2, §3, §4, §5

[6] = tested on: lambsquarters (Chenopodium album, CHEAL); experiment: Post-emerge herbicidal activity, greenhouse screen, CHEAL
Description: as §1, §2, §3, §4, §5

[7] = tested on: redroot pigweed (Amaranthus retroflexus, AMARE); experiment: Pre-emerge herbicidal activity, greenhouse screen, AMARE
Description: as §1, §2, §3, §4, §5

[8] = tested on: velvetleaf (Abutilon theophrasti, ABUTH); experiment: Pre-emerge herbicidal activity, greenhouse screen, ABUTH
Description: as §1, §2, §3, §4, §5

[9] = tested on: sicklepod (Cassia obtusifolia, CASOB); experiment: Pre-emerge herbicidal activity, greenhouse screen, CASOB
Description: as §1, §2, §3, §4, §5

[10] = tested on: barnyardgrass (Echinochloa crus-galli, ECHCG); experiment: Pre-emerge herbicidal activity, greenhouse screen, ECHCG
Description: as §1, §2, §3, §4, §5

[11] = tested on: common ragweed (Ambrosia artemisiifolia L., AMBEL); experiment: Post-emerge herbicidal activity, greenhouse screen, AMBEL
Description: as §1, §2, §3, §4, §5

[12] = tested on: sicklepod (Cassia obtusifolia, CASOB); experiment: Post-emerge herbicidal activity, greenhouse screen, CASOB
Description: as §1, §2, §3, §4, §5

[13] = tested on: green foxtail (Setaria viridis, SETVI); experiment: Pre-emerge herbicidal activity, greenhouse screen, SETVI
Description: as §1, §2, §3, §4, §5

[14] = tested on: velvetleaf (Abutilon theophrasti, ABUTH); experiment: Post-emerge herbicidal activity, greenhouse screen, ABUTH
Description: as §1, §2, §3, §4, §5

[15] = tested on: ivyleaf morningglory (Ipomoea hederacea, IPOHE); experiment: Post-emerge herbicidal activity, greenhouse screen, IPOHE
Description: as §1, §2, §3, §4, §5

[16] = tested on: lambsquarters (Chenopodium album, CHEAL); experiment: Pre-emerge herbicidal activity, greenhouse screen, CHEAL
Description: as §1, §2, §3, §4, §5

[17] = tested on: redroot pigweed (Amaranthus retroflexus, AMARE); experiment: Post-emerge herbicidal activity, greenhouse screen, AMARE
Description: as §1, §2, §3, §4, §5

[18] = tested on: barnyardgrass (Echinochloa crus-galli, ECHCG); experiment: Post-emerge herbicidal activity, greenhouse screen, ECHCG
Description: as §1, §2, §3, §4, §5

[19] = tested on: green foxtail (Setaria viridis, SETVI); experiment: Post-emerge herbicidal activity, greenhouse screen, SETVI
Description: as §1, §2, §3, §4, §5

[20] = tested on: large crabgrass (Digitaria sanguinalis, DIGSA); experiment: Post-emerge herbicidal activity, greenhouse screen, DIGSA
Description: as §1, §2, §3, §4, §5

Compound	Pre-emerge Herbicidal Activity IPOHE ([1]; 63 g ai/ha)	Pre-emerge Herbicidal Activity IPOHE ([1]; 250 g ai/ha)	Post-emerge Herbicidal Activity SORHA ([2]; 63 g ai/ha)	Post-emerge Herbicidal Activity SORHA ([2]; 250 g ai/ha)	Pre-emerge Herbicidal Activity AMBEL ([3]; 63 g ai/ha)	Pre-emerge Herbicidal Activity AMBEL ([3]; 250 g ai/ha)	Pre-emerge Herbicidal Activity SORHA ([4]; 63 g ai/ha)	Pre-emerge Herbicidal Activity SORHA ([4]; 250 g ai/ha)	Pre-emerge Herbicidal Activity DIGSA ([5]; 63 g ai/ha)	Pre-emerge Herbicidal Activity DIGSA ([5]; 250 g ai/ha)	Post-emerge Herbicidal Activity CHEAL ([6]; 63 g ai/ha)	Post-emerge Herbicidal Activity CHEAL ([6]; 250 g ai/ha)	Pre-emerge Herbicidal Activity AMARE ([7]; 63 g ai/ha)	Pre-emerge Herbicidal Activity AMARE ([7]; 250 g ai/ha)	Pre-emerge Herbicidal Activity ABUTH ([8]; 63 g ai/ha)	Pre-emerge Herbicidal Activity ABUTH ([8]; 250 g ai/ha)	Pre-emerge Herbicidal Activity CASOB ([9]; 63 g ai/ha)	Pre-emerge Herbicidal Activity CASOB ([9]; 250 g ai/ha)	Pre-emerge Herbicidal Activity ECHCG ([10]; 63 g ai/ha)	Pre-emerge Herbicidal Activity ECHCG ([10]; 250 g ai/ha)	further results
Cc1cc2c(-n3c(=O)cc(C(F)(F)F)n(C)c3=S)c(F)cc(Cl)c2o1 [Compound 2-2, 3-(7-chloro-5-fluoro-2-methyl-1-benzofuran-4-yl)-1-methyl-2-thioxo-6-(trifluoromethyl)-2,3-dihydropyrimidin-4(1H)-one]	99	99	100	100	100	100	100	100	100	100	100	100	100	100	100	100	99	100	99	100	Post-emerge Herbicidal Activity AMBEL ([11]; 63 g ai/ha): 100; Post-emerge Herbicidal Activity AMBEL ([11]; 250 g ai/ha): 100; Post-emerge Herbicidal Activity CASOB ([12]; 63 g ai/ha): 100; Post-emerge Herbicidal Activity CASOB ([12]; 250 g ai/ha): 100; Pre-emerge Herbicidal Activity SETVI ([13]; 63 g ai/ha): 100; Pre-emerge Herbicidal Activity SETVI ([13]; 250 g ai/ha): 100; Post-emerge Herbicidal Activity ABUTH ([14]; 63 g ai/ha): 100; Post-emerge Herbicidal Activity ABUTH ([14]; 250 g ai/ha): 100; Post-emerge Herbicidal Activity IPOHE ([15]; 63 g ai/ha): 100; Post-emerge Herbicidal Activity IPOHE ([15]; 250 g ai/ha): 100; Pre-emerge Herbicidal Activity CHEAL ([16]; 63 g ai/ha): 100; Pre-emerge Herbicidal Activity CHEAL ([16]; 250 g ai/ha): 100; Post-emerge Herbicidal Activity AMARE ([17]; 63 g ai/ha): 100; Post-emerge Herbicidal Activity AMARE ([17]; 250 g ai/ha): 100; Post-emerge Herbicidal Activity ECHCG ([18]; 63 g ai/ha): 100; Post-emerge Herbicidal Activity ECHCG ([18]; 250 g ai/ha): 100; Post-emerge Herbicidal Activity SETVI ([19]; 63 g ai/ha): 100; Post-emerge Herbicidal Activity SETVI ([19]; 250 g ai/ha): 100; Post-emerge Herbicidal Activity DIGSA ([20]; 63 g ai/ha): 85; Post-emerge Herbicidal Activity DIGSA ([20]; 250 g ai/ha): 100
Cn1c(C(F)(F)F)cc(=O)n(-c2c(F)cc(Cl)c3ncoc23)c1=S [Compound 1-1, 3-(4-chloro-6-fluoro-1,3-benzoxazol-7-yl)-1-methyl-2-thioxo-6-(trifluoromethyl)-2,3-dihydropyrimidin4(1H)-one]	100	100	95	100	100	100	100	100	100	100	100	100	100	100	100	100	100	100	100	100	Post-emerge Herbicidal Activity AMBEL ([11]; 63 g ai/ha): 100; Post-emerge Herbicidal Activity AMBEL ([11]; 250 g ai/ha): 100; Post-emerge Herbicidal Activity CASOB ([12]; 63 g ai/ha): 100; Post-emerge Herbicidal Activity CASOB ([12]; 250 g ai/ha): 100; Pre-emerge Herbicidal Activity SETVI ([13]; 63 g ai/ha): 100; Pre-emerge Herbicidal Activity SETVI ([13]; 250 g ai/ha): 100; Post-emerge Herbicidal Activity ABUTH ([14]; 63 g ai/ha): 100; Post-emerge Herbicidal Activity ABUTH ([14]; 250 g ai/ha): 100; Post-emerge Herbicidal Activity IPOHE ([15]; 63 g ai/ha): 100; Post-emerge Herbicidal Activity IPOHE ([15]; 250 g ai/ha): 100; Pre-emerge Herbicidal Activity CHEAL ([16]; 63 g ai/ha): 100; Pre-emerge Herbicidal Activity CHEAL ([16]; 250 g ai/ha): 100; Post-emerge Herbicidal Activity AMARE ([17]; 63 g ai/ha): 100; Post-emerge Herbicidal Activity AMARE ([17]; 250 g ai/ha): 100; Post-emerge Herbicidal Activity ECHCG ([18]; 63 g ai/ha): 100; Post-emerge Herbicidal Activity ECHCG ([18]; 250 g ai/ha): 100; Post-emerge Herbicidal Activity SETVI ([19]; 63 g ai/ha): 100; Post-emerge Herbicidal Activity SETVI ([19]; 250 g ai/ha): 100; Post-emerge Herbicidal Activity DIGSA ([20]; 63 g ai/ha): 95; Post-emerge Herbicidal Activity DIGSA ([20]; 250 g ai/ha): 99
Cn1c(C(F)(F)F)cc(=O)n(-c2c(F)cc(Cl)c3nc(C(C)(C)C)oc23)c1=S [Compound 1-3, 3-[2-t-butyl-4-chloro-6-fluoro-1,3-benzoxazol-7-yl]-1-methyl-2-thioxo-6-(trifluoromethyl)-2,3-dihydropyrimidin-4(1H)-one]	95	100	65	85	99	100	100	100	100	100	100	100	100	100	100	100	95	100	100	100	Post-emerge Herbicidal Activity AMBEL ([11]; 63 g ai/ha): 99; Post-emerge Herbicidal Activity AMBEL ([11]; 250 g ai/ha): 100; Post-emerge Herbicidal Activity CASOB ([12]; 63 g ai/ha): 70; Post-emerge Herbicidal Activity CASOB ([12]; 250 g ai/ha): 100; Pre-emerge Herbicidal Activity SETVI ([13]; 63 g ai/ha): 100; Pre-emerge Herbicidal Activity SETVI ([13]; 250 g ai/ha): 100; Post-emerge Herbicidal Activity ABUTH ([14]; 63 g ai/ha): 100; Post-emerge Herbicidal Activity ABUTH ([14]; 250 g ai/ha): 100; Post-emerge Herbicidal Activity IPOHE ([15]; 63 g ai/ha): 100; Post-emerge Herbicidal Activity IPOHE ([15]; 250 g ai/ha): 100; Pre-emerge Herbicidal Activity CHEAL ([16]; 63 g ai/ha): 100; Pre-emerge Herbicidal Activity CHEAL ([16]; 250 g ai/ha): 100; Post-emerge Herbicidal Activity AMARE ([17]; 63 g ai/ha): 100; Post-emerge Herbicidal Activity AMARE ([17]; 250 g ai/ha): 100; Post-emerge Herbicidal Activity ECHCG ([18]; 63 g ai/ha): 100; Post-emerge Herbicidal Activity ECHCG ([18]; 250 g ai/ha): 100; Post-emerge Herbicidal Activity SETVI ([19]; 63 g ai/ha): 99; Post-emerge Herbicidal Activity SETVI ([19]; 250 g ai/ha): 100; Post-emerge Herbicidal Activity DIGSA ([20]; 63 g ai/ha): 50; Post-emerge Herbicidal Activity DIGSA ([20]; 250 g ai/ha): 65
